Legend:
JAK2 = JAK2 (Homo sapiens (Human), UniProt O60674); assay: JAK2 Z-Lyte biochemical assay; details: commercial JAK2 Z-Lyte assay from Invitrogen
Procedure: The JAK2 Z-Lyte biochemical assay was performed according to manufacturer's instructions (Life Technologies).

JAK2/STAT5 = assay: Western blots of JAK2/STAT5 inhibition in cells; assay type: cell-based; details: cells treated with indicated concentrations for 4 hours; immunoblotting pJAK2, pSTAT5, c-Myc
Procedure: (§1) FIG. 1. […] Cells were treated with the indicated concentrations of JAK2 inhibitor for 4 hours. Cell pellets were lysed with Cell Lysis Buffer (Cell Signaling Technology) and then immunoblotting was performed with pJAK2 (#3771), pSTAT5 (#4322), c-Myc (#9402), JAK2 (#3230), STAT5 (#9363 or 94205), and β-actin (#4967 or 12620) antibodies from Cell Signaling Technology.
as §1, with “2.” for “1.”

[1] = tested on: cell lines or patient-derived xenografts from patients with CRLF2-rearranged B-ALL; details: cited from earlier work

Chain of JAK2 (O60674 whole entry): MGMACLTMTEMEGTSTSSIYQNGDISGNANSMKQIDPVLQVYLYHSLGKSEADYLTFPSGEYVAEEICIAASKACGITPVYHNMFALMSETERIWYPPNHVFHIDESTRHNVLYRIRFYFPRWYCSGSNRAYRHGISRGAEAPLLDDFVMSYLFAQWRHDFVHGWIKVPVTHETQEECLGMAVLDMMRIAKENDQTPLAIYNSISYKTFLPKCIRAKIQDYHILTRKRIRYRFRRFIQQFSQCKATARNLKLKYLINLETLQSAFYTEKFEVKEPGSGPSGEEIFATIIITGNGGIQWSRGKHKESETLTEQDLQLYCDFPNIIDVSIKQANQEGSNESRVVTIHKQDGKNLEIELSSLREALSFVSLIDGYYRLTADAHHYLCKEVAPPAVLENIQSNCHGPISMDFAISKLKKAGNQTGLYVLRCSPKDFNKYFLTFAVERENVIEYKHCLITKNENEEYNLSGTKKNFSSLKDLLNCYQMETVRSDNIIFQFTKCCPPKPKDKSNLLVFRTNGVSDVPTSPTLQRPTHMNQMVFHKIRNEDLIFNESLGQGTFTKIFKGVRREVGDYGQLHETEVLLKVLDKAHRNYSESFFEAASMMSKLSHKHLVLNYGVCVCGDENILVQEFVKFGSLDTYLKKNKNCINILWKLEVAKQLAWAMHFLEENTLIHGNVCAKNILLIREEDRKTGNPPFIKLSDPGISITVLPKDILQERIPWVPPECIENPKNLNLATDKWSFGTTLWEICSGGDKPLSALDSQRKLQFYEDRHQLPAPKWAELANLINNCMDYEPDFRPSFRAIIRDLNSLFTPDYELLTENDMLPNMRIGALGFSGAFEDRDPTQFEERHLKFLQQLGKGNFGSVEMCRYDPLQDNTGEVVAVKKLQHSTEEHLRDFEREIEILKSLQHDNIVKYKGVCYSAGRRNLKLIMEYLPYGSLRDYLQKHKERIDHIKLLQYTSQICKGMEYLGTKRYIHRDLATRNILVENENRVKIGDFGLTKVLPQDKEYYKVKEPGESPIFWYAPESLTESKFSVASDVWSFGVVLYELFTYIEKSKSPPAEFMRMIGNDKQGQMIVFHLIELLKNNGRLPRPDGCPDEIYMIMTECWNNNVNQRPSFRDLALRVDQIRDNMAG

| Structure (SMILES) | IC50 (JAK2) | JAK2/STAT5 inhibition (Western blots) (JAK2/STAT5) | IC50 [1] |
| --- | --- | --- | --- |
| CC(=O)Nc1nc2ccc(-c3cc(C(=O)Nc4ccc(F)cc4F)ccc3C)nc2s1 [Compound I-2, 3-(2-acetamidothiazolo[5,4-b]pyridin-5-yl)-N-(2,4-difluorophenyl)-4-methylbenzamide] | > 10 µM | – | – |
| Cc1ccc(NC(=O)Nc2ccc(F)cc2F)cc1-c1ccc2nc(NC(=O)C3CC3)sc2n1 [Compound I-3, N-(5-(5-(3-(2,4-difluorophenyl)ureido)-2-methylphenyl)thiazolo[5,4-b]pyridin-2-yl)cyclopropanecarboxamide] | > 10 µM | – | – |
| CCN1CCN(Cc2cc(NC(=O)Nc3ccc(C)c(-c4ccc5nc(NC(=O)C6CC6)sc5n4)c3)cc(C(F)(F)F)c2)CC1 [Compound I-9, N-(5-(5-(3-(3-((4-ethylpiperazin-1-yl)methyl)-5-(trifluoromethyl)phenyl)ureido)-2-methylphenyl)thiazolo[5,4-b]pyridin-2-yl)cyclopropanecarboxamide] | > 10 µM | – | – |
| O=C(Nc1nc2ccc(-c3ccc4c(c3)N(C(=O)Nc3ccc(F)cc3F)CC4)nc2s1)C1CC1 [Compound I-10, 6-(2-(cyclopropanecarboxamido)thiazolo[5,4-b]pyridin-5-yl)-N-(2,4-difluorophenyl)indoline-1-carboxamide] | > 10 µM | – | – |
| CCN1CCN(Cc2cc(C(=O)N3CCc4ccc(-c5ccc6nc(NC(=O)C7CC7)sc6n5)cc43)cc(C(F)(F)F)c2)CC1 [Compound I-11, N-(5-(1-(3-((4-ethylpiperazin-1-yl)methyl)-5-(trifluoromethyl)benzoyl)indolin-6-yl)thiazolo[5,4-b]pyridin-2-yl)cyclopropanecarboxamide] | > 10 µM | – | – |
| CCN1CCN(Cc2cc(NC(=O)N3CCc4ccc(-c5ccc6nc(NC(=O)C7CC7)sc6n5)cc43)cc(C(F)(F)F)c2)CC1 [Compound I-12, 6-(2-(cyclopropanecarboxamido)thiazolo[5,4-b]pyridin-5-yl)-N-(3-((4-ethylpiperazin-1-yl)methyl)-5-(trifluoromethyl)phenyl)indoline-1-carboxamide] | > 10 µM | – | – |
| CCN1CCN(Cc2cc(C(=O)N3Cc4ccc(-c5ccc6nc(NC(=O)C7CC7)sc6n5)cc4C3)cc(C(F)(F)F)c2)CC1 [Compound I-13, N-(5-(2-(3-((4-ethylpiperazin-1-yl)methyl)-5-(trifluoromethyl)benzoyl)isoindolin-5-yl)thiazolo[5,4-b]pyridin-2-yl)cyclopropanecarboxamide] | > 10 µM | – | – |
| CCN1CCN(Cc2cc(NC(=O)N3Cc4ccc(-c5ccc6nc(NC(=O)C7CC7)sc6n5)cc4C3)cc(C(F)(F)F)c2)CC1 [Compound I-14, 5-(2-(cyclopropanecarboxamido)thiazolo[5,4-b]pyridin-5-yl)-N-(3-((4-ethylpiperazin-1-yl)methyl)-5-(trifluoromethyl)phenyl)isoindoline-2-carboxamide] | > 10 µM | – | – |
| O=C(Nc1nc2ccc(-c3ccc4c(c3)CN(C(=O)Nc3ccc(F)cc3F)C4)nc2s1)C1CC1 [Compound I-15, 5-(2-(cyclopropanecarboxamido)thiazolo[5,4-b]pyridin-5-yl)-N-(2,4-difluorophenyl)isoindoline-2-carboxamide] | > 10 µM | – | – |
| Cc1ccc(NC(=O)Nc2ccc(F)cc2F)cc1Oc1ccc2nc(NC(=O)C3CC3)sc2n1 [Compound I-16, N-(5-(5-(3-(2,4-difluorophenyl)ureido)-2-methylphenoxy)thiazolo[5,4-b]pyridin-2-yl)cyclopropanecarboxamide] | > 10 µM | – | – |
| CCN1CCN(Cc2ccc(NC(=O)Nc3ccc(C)c(Oc4ccc5nc(NC(=O)C6CC6)sc5n4)c3)cc2C(F)(F)F)CC1 [Compound I-17, N-(5-(5-(3-(4-((4-ethylpiperazin-1-yl)methyl)-3-(trifluoromethyl)phenyl)ureido)-2-methylphenoxy)thiazolo[5,4-b]pyridin-2-yl)cyclopropanecarboxamide] | > 10 µM | – | – |
| CCN1CCN(Cc2ccc(NC(=O)N3Cc4ccc(Oc5ccc6nc(NC(=O)C7CC7)sc6n5)cc4C3)cc2C(F)(F)F)CC1 [Compound I-21, 5-((2-(cyclopropanecarboxamido)thiazolo[5,4-b]pyridin-5-yl)oxy)-N-(4-((4-ethylpiperazin-1-yl)methyl)-3-(trifluoromethyl)phenyl)isoindoline-2-carboxamide] | > 10 µM | – | – |
| CCN1CCN(Cc2cc(NC(=O)N3Cc4ccc(Oc5ccc6nc(NC(=O)C7CC7)sc6n5)cc4C3)cc(C(F)(F)F)c2)CC1 [Compound I-22, 5-((2-(cyclopropanecarboxamido)thiazolo[5,4-b]pyridin-5-yl)oxy)-N-(3-((4-ethylpiperazin-1-yl)methyl)-5-(trifluoromethyl)phenyl)isoindoline-2-carboxamide] | > 10 µM | – | – |
| O=C(Nc1nc2ccc(Oc3ccc4c(c3)CN(C(=O)Nc3ccc(F)cc3F)C4)nc2s1)C1CC1 [Compound I-23, 5-((2-(cyclopropanecarboxamido)thiazolo[5,4-b]pyridin-5-yl)oxy)-N-(2,4-difluorophenyl)isoindoline-2-carboxamide] | > 10 µM | – | – |
| O=C(Nc1nc2ccc(Oc3ccc4nc(Nc5ccc(F)cc5F)[nH]c4c3)nc2s1)C1CC1 [Compound I-24, N-(5-((2-((2,4-difluorophenyl)amino)-1H-benzo[d]imidazol-6-yl)oxy)thiazolo[5,4-b]pyridin-2-yl)cyclopropanecarboxamide] | > 10 µM | – | – |
| N#CC[C@H](C1CCCC1)n1cc(-c2ncnc3[nH]ccc23)cn1 [Ruxolitinib] | – | – | > 20 µM |

Further lines, with some results ahead:

| IC50 (JAK2) | Structure (SMILES) | JAK2/STAT5 inhibition (Western blots) (JAK2/STAT5) | IC50 [1] |
| --- | --- | --- | --- |
| > 10 µM | Cc1ccc(C(=O)Nc2ccc(F)cc2F)cc1-c1ccc2nc(NC(=O)C3CC3)sc2n1 [Compound I-1, 3-(2-(cyclopropanecarboxamido)thiazolo[5,4-b]pyridin-5-yl)-N-(2,4-difluorophenyl)-4-methylbenzamide] | – | – |
| 0.881 µM | CCN1CCN(Cc2cc(C(=O)Nc3ccc(C)c(-c4ccc5nc(NC(=O)C6CC6)sc5c4)c3)cc(C(F)(F)F)c2)CC1 [Compound I-4] | – | – |
| 1.45 µM | CCN1CCN(C(=O)c2cc(NC(=O)c3ccc(C)c(-c4ccc5nc(NC(=O)C6CC6)sc5n4)c3)cc(C(F)(F)F)c2)CC1 [Compound I-6, 3-(2-(cyclopropanecarboxamido)thiazolo[5,4-b]pyridin-5-yl)-N-(3-(4-ethylpiperazine-1-carbonyl)-5-(trifluoromethyl)phenyl)-4-methylbenzamide] | JAK2/STAT5 inhibition | – |
| 0.55 µM | CCN1CCN(Cc2cc(C(=O)Nc3cccc(-c4ccc5nc(NC(=O)C6CC6)sc5n4)c3)cc(C(F)(F)F)c2)CC1 [Compound I-7, N-(3-(2-(cyclopropanecarboxamido)thiazolo[5,4-b]pyridin-5-yl)phenyl)-3-((4-ethylpiperazin-1-yl)methyl)-5-(trifluoromethyl)benzamide] | – | – |
| 0.639 µM | CCN1CCN(Cc2cc(C(=O)Nc3ccc(C)c(-c4ccc5nc(NC(=O)C6CC6)sc5n4)c3)cc(C(F)(F)F)c2)CC1 [Compound I-8, N-(3-(2-(cyclopropanecarboxamido)thiazolo[5,4-b]pyridin-5-yl)-4-methylphenyl)-3-((4-ethylpiperazin-1-yl)methyl)-5-(trifluoromethyl)benzamide] | JAK2/STAT5 inhibition | – |
| 0.824 µM | CCN1CCN(Cc2cc(C(=O)Nc3ccc(C)c(Oc4ccc5nc(NC(=O)C6CC6)sc5n4)c3)cc(C(F)(F)F)c2)CC1 [Compound I-19, N-(3-((2-(cyclopropanecarboxamido)thiazolo[5,4-b]pyridin-5-yl)oxy)-4-methylphenyl)-3-((4-ethylpiperazin-1-yl)methyl)-5-(trifluoromethyl)benzamide] | – | – |
| 2.83 µM | CCN1CCN(Cc2cc(NC(=O)c3ccc(C)c(Oc4ccc5nc(NC(=O)C6CC6)sc5n4)c3)cc(C(F)(F)F)c2)CC1 [Compound I-20, 3-((2-(cyclopropanecarboxamido)thiazolo[5,4-b]pyridin-5-yl)oxy)-N-(3-((4-ethylpiperazin-1-yl)methyl)-5-(trifluoromethyl)phenyl)-4-methylbenzamide] | – | – |
| 0.63 µM | CCN1CCN(Cc2ccc(Nc3nc4ccc(Oc5ccc6nc(NC(=O)C7CC7)sc6n5)cc4[nH]3)cc2C(F)(F)F)CC1 [Compound I-25, N-(5-((2-((4-((4-ethylpiperazin-1-yl)methyl)-3-(trifluoromethyl)phenyl)amino)-1H-benzo[d]imidazol-6-yl)oxy)thiazolo[5,4-b]pyridin-2-yl)cyclopropanecarboxamide] | – | – |

— patent US12415816B2, “Benzothiazole derivatives and 7-aza-benzothiazole derivatives as janus kinase 2 inhibitors and uses thereof” (Dana-Farber Cancer Institute, Inc., priority 2018, dated 2025)
